Entries after “also recorded” stand apart in the source; their conditions may differ.
Tests used:
Format in all cases: cell-based
[1] = tested on: macrophages with prostate cancer cells (DU145 or PC3); experiment: Macrophage migration in invasive assay with DT-treated prostate cancer cells; conditions: DT-treated vs untreated DU145 and PC3 cells; images not shown
Experimental: An in vitro study to evaluate the effect of DT on macrophage and cancer cell migration was performed.
Macrophages were treated with a vehicle (DMSO), 5 or 10 μM DT. The mobility of the macrophages was not affected by DT. The macrophages were placed in an invasive assay, prepared accordingly to the steps in Example 10 using DT-treated prostate cancer cells (DU145 or PC3) incubated in 10% CD-FBS RPMI medium.

[2] = tested on: CCL2 in hormone therapy resistant and metastatic PC3 prostate cancer cells; experiment: CCL2 ELISA of culture medium, PC3; conditions: 5 or 10 μM DT, 24 hours, vs DMSO, FIG. 14 (d)
Experimental: It has been reported that increased CCL2 expression enhances cancer cell metastasis via macrophage recruitment. The effect of DT on CCL2 expression in RAW264.7 macrophages, THP1 monocytes and prostate cancer cells (metastatic DU145 and hormone therapy resistant and metastatic PC3) was examined by treating the cells with DMSO (control), 5 or 10 μM DT for 24 hours.
The culture medium was collected and the concentration of CCL2 was measured using ELISA assay.

[3] = tested on: skp2 and downstream genes in A549 and H460 lung cancer cells; experiment: skp2 and downstream gene mRNA expression, lung cancer cells; conditions: various concentrations of DT vs DMSO, FIG. 10 (c)-(f)
Experimental: It has been reported that skp2 plays an important role in the metastasis of cancer cells. An in vitro evaluation of the effect of DT on prostate cancer cell metastasis was performed, by measuring the mRNA expression of skp2 in the following prostate cancer cell lines: meatstatic DU145 cells (Panels i-j of FIG. 9), hormone therapy resistant and metastatic PC3 cells (Panel h of FIG. 9), and 22RV1 cells (Panels k-l of FIG. 9), A549 lung cancer cells (Panels (c)-(e) of FIG. 10), chemotherapy-resistant/metastatic H460 lung cancer cells (Panels (d) and (f) of FIG. 10), HCT116 colon cancer cells (Panels (g) and (i) of FIG. 10) and MCF7-tamoxifen resistant breast cancer cells (Panels (h) and (j) of FIG. 10) […].
The cancer cells were treated with DMSO and various concentrations of DT.

[4] = tested on: lung cancer cell lines (A549 and chemotherapy-resistant/metastatic H460); experiment: XTT proliferation assay, lung cancer cells; conditions: 1-2 days, FIG. 2
Experimental: The prostate cancer cells were plated at a density of 10^3 or 3×10^3 per well, in a 96-well plate, in a medium containing 10% Fetal bovine serum (FBS) (Gibco®, commercially available from Life Technologies, USA). Once the prostate cancer cells were attached to the culture dish, the 10% FBS medium was replaced with a second 10% FBS medium and each of the prostate cancer cell line was treated with 1, 5, and 10 μM of DT respectively for 1-2 days. The absorbance was measured using XTT assay kit (commercially available from Roche, Switzerland) at 492 nm using an ELISA reader (Bio-Rad Laboratories, USA). An in vitro evaluation of the effect of DT, gemcitabine (a chemotherapeutic agent) and etoposide (a chemotherapeutic agent) on the lung cancer cells was performed. The lung cancer cell lines, chemotherapy-resistant/metastatic H460 lung cancer cells (with pleural metastasis) and A549 lung cancer cells, were purchased from Bioresource Collection and Research Center, Taiwan. […] The absorbance was measured using XTT assay kit at 492 nm using an ELISA reader.

[5] = tested on: lung cancer cells (A549 and chemotherapy resistant/metastatic H460); experiment: Cell invasion assay (transwell, Matrigel), lung cancer cells; conditions: 5 or 10 μM DT, 3 days, vs control vehicle; FIG. 11
Experimental: (§1) An in vitro evaluation of the effect of DT on lung cancer cells (A549 and chemotherapy resistant/metastatic H460), prostate cancer cells (metastatic DU145) and colorectal cancer cells (chemotherapy resistant HCT116) invasion and migration was performed, using cell invasion assay and cell migration assay.
(§2) Cell Invasion Assay: cells of interest were treated with a control vehicle, 5 or 10 μM of DT and incubated for 3 days. 1×10^5 cells were placed into the upper chamber of transwell plates (8 μm) with membranes pre-coated with 20% Matrigel and the bottom chamber contained 600 μL media supplemented with 10% fetal bovine serum (FBS). The cells migrated to the bottom of the chamber were fixed, stained and counted.

[6] = tested on: colorectal cancer cells (chemotherapy resistant HCT116); experiment: Cell migration (wound-healing) assay, colorectal cancer cells; conditions: DT vs control vehicle, 24 h, dose dependent; FIG. 13 (b)
Experimental: as §1
Cell Migration Assay: In vitro wound-healing assay was used to assess cell motility in two dimensions. Cancer cells were plated overnight to achieve a subconfluent cell layer in 24-well plates. A scratch was made on the cell layer with a micropipette tip, and cultures were washed twice with serum-free medium to remove floating cells. Cancer cells were incubated in a culture medium containing DT or the control vehicle. Wound healing was visualized by comparing photographs taken at the time of adding the DT/control vehicle and 24 h later. Three experiments were done in quadruplicates.

[7] = tested on: prostate cancer cells (PC3, DU145 and 22RV1); experiment: Prostate cancer cell invasion assay with DT-treated conditioned media; conditions: 5-10 μM DT, 24 hours, results not shown
Experimental: as §2
As illustrated in Example 10, the production of CCL2 was inhibited by DT in both prostate cancer cells and macrophage, the effect of DT on monocyte/cancer cell co-culture and macrophage/cancer cell co-culture was examined using the invasion assay described in Example 9. • (a) THP1 monocytes, Raw264.7 macrophage, monocyte/prostate cancer co-culture and macrophage/prostate cancer co-culture were treated with a vehicle (DMSO), 5 or 10 μM DT for 24 hours, the cultured medium was collected and placed into the lower chamber of a transwell plate. • (b) Prostate cancer cells (PC3, DU145 and 22RV1) were placed in the cell invasion assay). The level of CCL2 in the invasion assay was measured by ELIZA method.

Structure (SMILES): Cc1cccc2c3c(ccc12)C(=O)C1=C(OCC1C)C3=O (centres unmarked) [DT, dihydroisotanshinone I]
- macrophage migration induced by prostate cancer cells [1]: inhibit macrophage migration
- production of CCL2 in PC3 prostate cancer cells [2]: effectively inhibit the production of CCL2
- mRNA expression of skp2 and its downstream genes, lung cancer [3]: effectively inhibit mRNA expression of skp2 and its downstream genes; also recorded: reduces skps and its downstream genes, MMP2, MMP9 and E-cadherin
- inhibition of lung cancer cells (proliferation) ([4]; 5, 10 and 20 μM DT, XTT): inhibits the lung cancer cells in a dose dependent fashion
- inhibition of lung cancer proliferation, DT compared with gemcitabine and etoposide ([4]; DT 5, 10, 20 μM, gemcitabine hydrochloride and etoposide 10, 20 μM, regardless of the dosage, also H460): more effective than gemcitabine and etoposide in inhibiting lung cancer proliferation
- lung cancer cell motility (invasion assay) [5]: reduced metastatic lung cancer cell motility; also recorded: reduced the motility of lung cancer cells
- colorectal cancer cell migration into the wounded area [6]: reduced chemotherapy resistant colorectal cancer cell migration; also recorded: reduced colon cancer cell migration into the wounded area
- migration of prostate cancer cells ([7]; DT-treated macrophage medium): significantly inhibit the migration of prostate cancer cells in a dose-dependent manner
- migration of prostate cancer cells ([7]; DT-treated macrophage/prostate cancer co-culture medium): significantly inhibit the migration of prostate cancer cells in a dose-dependent manner
- migration of prostate cancer cells ([7]; DT-treated monocyte medium): significantly inhibit the migration of prostate cancer cells in a dose-dependent manner
- migration of prostate cancer cells ([7]; DT-treated monocyte/prostate cancer co-culture medium): significantly inhibit the migration of prostate cancer cells in a dose-dependent manner
